Drawing on PubChem BioAssay AID330 (DTP/NCI, 2004), this text covers T/C for 22 compounds.

This assay relates to P388 leukemia ip, CD2F1 mice, survival T/C. As to the kind of experiment: NCI In Vivo Anticancer Drug Screen. Data for tumor model P388 Leukemia (intraperitoneal) in CD2F1 (CDF1) mice. The following applies: endpoint: median survival time, higher = longer survival. In short, it runs like this:
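Mice carrying the transplanted tumor received test compound or vehicle. Survival was recorded in each group, and the value is the treated-group measurement divided by that of the vehicle-treated control group.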

[1] abbreviates: dose: 50.0 mg/kg/injection, schedule: Q01DX009 (ip), vehicle: saline with Tween-80.
Where [2] appears, read: dose: 100.0 mg/kg/injection, schedule: Q01DX009 (ip), vehicle: saline with Tween-80.
Setting [3] is: dose: 25.0 mg/kg/injection, schedule: Q01DX009 (ip), vehicle: saline with Tween-80.
Where [4] appears, read: dose: 60.0 mg/kg/injection, schedule: Q01DX005 (ip), vehicle: saline with Tween-80.
The mark [5] stands for this setting: dose: 120.0 mg/kg/injection, schedule: Q01DX005 (ip), vehicle: saline with Tween-80.
Setting [6] is: dose: 240.0 mg/kg/injection, schedule: Q01DX005 (ip), vehicle: saline with Tween-80.
Setting [7] is: dose: 50.0 mg/kg/injection, schedule: Q01DX005 (ip), vehicle: saline with Tween-80.
The mark [8] stands for this setting: dose: 100.0 mg/kg/injection, schedule: Q01DX005 (ip), vehicle: saline with Tween-80.
Setting [9] is: dose: 200.0 mg/kg/injection, schedule: Q01DX005 (ip), vehicle: saline with Tween-80.
Setting [10] is: dose: 60.0 mg/kg/injection, schedule: Q01DX005 (ip), vehicle: Klucel (hydroxypropylcellulose) (HPC).
[11] abbreviates: dose: 120.0 mg/kg/injection, schedule: Q01DX005 (ip), vehicle: Klucel (hydroxypropylcellulose) (HPC).
Where [12] appears, read: dose: 240.0 mg/kg/injection, schedule: Q01DX005 (ip), vehicle: Klucel (hydroxypropylcellulose) (HPC).
Where [13] appears, read: dose: 25.0 mg/kg/injection, schedule: Q04DX003 (ip), vehicle: saline.
Where [14] appears, read: dose: 50.0 mg/kg/injection, schedule: Q04DX003 (ip), vehicle: saline.

The structures appear in SMILES notation. “And” between values parts separate entries of the source, which are not always exact repeats. Identical values can stand only once. Toxic doses and inconclusive results are not listed. Square brackets hold non-standard residues; d marks the D form. Peptide text beside a SMILES is read from it. * marks the point of attachment. ξ: configuration not given here. ξAsp(βξ-Me) = CC(C(=O)O)C(N)C(=O)O; X11 = CC(N*)C1NC(=O)C2CCCCN2C1=O; ξAbu(3ξ-NH2) = CC(N)C(N)C(=O)O; X10 = CCC(C)CCC/C=C/CC(=O)*

With `O=C1C=C2CCCCCCCC(C1)C2` (centres undefined), the T/C reads like this: (dose: 50.0 mg/kg/injection, schedule: Q01DX005 (ip), vehicle: Klucel (hydroxypropylcellulose) (HPC)) 113 % of control; (dose: 100.0 mg/kg/injection, schedule: Q01DX005 (ip), vehicle: Klucel (hydroxypropylcellulose) (HPC)) 108 % of control; (dose: 200.0 mg/kg/injection, schedule: Q01DX005 (ip), vehicle: Klucel (hydroxypropylcellulose) (HPC)) 110 % of control.
Consider `Cc1cc(CCNC=O)c(C)c2c1oc1ccccc12`, for which the T/C was 110 % of control under setting [1]; 103 % of control under setting [2]; 94 % of control (dose: 200.0 mg/kg/injection, schedule: Q01DX009 (ip), vehicle: saline with Tween-80); 94 % of control (dose: 400.0 mg/kg/injection, schedule: Q01DX009 (ip), vehicle: saline with Tween-80).
As to `CCCCOC(=O)/C=C(\I)C(=O)OCCCC`, the T/C reads like this: (dose: 6.25 mg/kg/injection, schedule: Q01DX009 (ip), vehicle: saline with Tween-80) 101 % of control and 110 % of control and 92 % of control; (dose: 12.5 mg/kg/injection, schedule: Q01DX009 (ip), vehicle: saline with Tween-80) 112 % of control and 114 % of control and 96 % of control; under setting [3], 113 % of control and 120 % of control and 124 % of control; under setting [1], 110 % of control and 111 % of control and 118 % of control.
On to `Cc1c(C(=O)O)no[n+]1[O-]`, for which the T/C is, setting by setting: (dose: 60.0 mg/kg/injection, schedule: Q01DX005 (ip), vehicle: saline) 101 % of control; (dose: 120.0 mg/kg/injection, schedule: Q01DX005 (ip), vehicle: saline) 93 % of control; (dose: 240.0 mg/kg/injection, schedule: Q01DX005 (ip), vehicle: saline) 93 % of control.
As for `O=c1[nH]c2cc(Cl)ccc2nc1/C=C(O)/C=C/c1ccccc1`, the T/C under setting [4] was 98 % of control and 89 % of control; the T/C under setting [5] was 95 % of control; the T/C under setting [6] is 89 % of control and 91 % of control.
Turning to `CCC(C)CCC/C=C/CC(=O)NC(CC(=O)O)C(=O)NC(C(=O)NC(CC(=O)O)C(=O)NCC(=O)NC(CC(=O)O)C(=O)NCC(=O)NC(C(=O)NC(C(=O)N1CCCC1C(=O)NC(C)C1NC(=O)C2CCCCN2C1=O)C(C)C)C(C)N)C(C)C(=O)O` (stereo not drawn) (X10-D[ξAsp(βξ-Me)]DGDG[ξAbu(3ξ-NH2)]VP-X11; configuration not given here), the T/C (dose: 25.0 mg/kg/injection, schedule: Q01DX009 (ip), vehicle: saline + alcohol) is 103 % of control; the T/C (dose: 50.0 mg/kg/injection, schedule: Q01DX009 (ip), vehicle: saline + alcohol) was 103 % of control; the T/C (dose: 100.0 mg/kg/injection, schedule: Q01DX009 (ip), vehicle: saline + alcohol) is 107 % of control and 88 % of control.
In the case of `ClCCN1c2ccc3ccccc3c2Sc2c1ccc1ccccc21`, the T/C is, setting by setting: under setting [7], 96 % of control; under setting [8], 92 % of control; under setting [9], 97 % of control.
As to `Cc1cc2oc(=O)c3c(c2c(O)c1CN1CCCC1)CCCC3`, the T/C (dose: 16.0 mg/kg/injection, schedule: Q01DX009 (ip), vehicle: Klucel (hydroxypropylcellulose) (HPC)) was 97 % of control; the T/C (dose: 32.0 mg/kg/injection, schedule: Q01DX009 (ip), vehicle: Klucel (hydroxypropylcellulose) (HPC)) was 101 % of control; the T/C (dose: 64.0 mg/kg/injection, schedule: Q01DX009 (ip), vehicle: Klucel (hydroxypropylcellulose) (HPC)) is 103 % of control; the T/C (dose: 128.0 mg/kg/injection, schedule: Q01DX009 (ip), vehicle: Klucel (hydroxypropylcellulose) (HPC)) was 97 % of control.
With `CC(C)(CC#N)c1cc(CC(C)(C)C2(C)OCCO2)no1`, the T/C was 104 % of control under setting [7], 98 % of control under setting [8] and 92 % of control under setting [9].
As to `[C-]#[N+]C1CC2CCC1C2.[C-]#[N+]C1CC2CCC1C2.[C-]#[N+]C1CC2CCC1C2.[C-]#[N+]C1CC2CCC1C2.[C-]#[N+]C1CC2CCC1C2.[C-]#[N+]C1CC2CCC1C2.[Mn]` (centres undefined), the T/C is 115 % of control (dose: 0.19 mg/kg/injection, schedule: Q01DX009 (ip), vehicle: saline with Tween-80) and 156 % of control (dose: 0.38 mg/kg/injection, schedule: Q01DX009 (ip), vehicle: saline with Tween-80).
Consider `CN(C)CC1CCC1N1c2ccccc2Sc2ccc(Cl)cc21` (centres undefined), for which the T/C reads like this: (dose: 50.0 mg/kg/injection, schedule: Q04DX003 (ip), vehicle: Klucel (hydroxypropylcellulose) (HPC)) 105 % of control; (dose: 100.0 mg/kg/injection, schedule: Q04DX003 (ip), vehicle: Klucel (hydroxypropylcellulose) (HPC)) 100 % of control; (dose: 200.0 mg/kg/injection, schedule: Q04DX003 (ip), vehicle: Klucel (hydroxypropylcellulose) (HPC)) 98 % of control.
For the compound `COC(=O)C1(C(C)C)N=C(c2ccccc2)OO1` (centres undefined), the T/C runs as follows: under setting [3], 91 % of control; under setting [1], 100 % of control; under setting [2], 104 % of control.
In the case of `CC(=O)OCN1C(=O)N(COC(C)=O)C(c2ccccc2)(c2ccccc2)C1=O`, the T/C runs as follows: under setting [10], 104 % of control; under setting [11], 105 % of control; under setting [12], 103 % of control.
For `O=C1OC(c2ccccc2)N(c2ccccc2)C(=O)C1Cc1ccccc1` (centres undefined), the T/C reads like this: under setting [10], 103 % of control; under setting [11], 98 % of control; under setting [12], 110 % of control.
Turning to `O=C(O)c1ccccc1SSC(=S)N1CCOCC1`, the T/C reads like this: (dose: 50.0 mg/kg/injection, schedule: Q01DX009 (ip), vehicle: Klucel (hydroxypropylcellulose) (HPC)) 93 % of control; (dose: 100.0 mg/kg/injection, schedule: Q01DX009 (ip), vehicle: Klucel (hydroxypropylcellulose) (HPC)) 108 % of control; (dose: 200.0 mg/kg/injection, schedule: Q01DX009 (ip), vehicle: Klucel (hydroxypropylcellulose) (HPC)) 118 % of control.
As for `Cc1c2ccccc2cc2c1ccc1ccccc12`, the T/C was 116 % of control (dose: 17.5 mg/kg/injection, schedule: Q01DX009 (ip), vehicle: saline with Tween-80); 100 % of control (dose: 25.0 mg/kg/injection, schedule: Q04DX003 (ip), vehicle: other); 122 % of control (dose: 35.0 mg/kg/injection, schedule: Q01DX009 (ip), vehicle: saline with Tween-80); 100 % of control (dose: 50.0 mg/kg/injection, schedule: Q04DX003 (ip), vehicle: other); 152 % of control (dose: 70.0 mg/kg/injection, schedule: Q01DX009 (ip), vehicle: saline with Tween-80); 102 % of control (dose: 100.0 mg/kg/injection, schedule: Q04DX003 (ip), vehicle: other). Also, the T/C is, setting by setting: (dose: 200.0 mg/kg/injection, schedule: Q04DX003 (ip), vehicle: other) 102 % of control; (dose: 400.0 mg/kg/injection, schedule: Q04DX003 (ip), vehicle: other) 107 % of control.
In the case of `O=C(OCCO)N1CCN(C(=O)OCCO)CC1`, the T/C reads like this: (dose: 50.0 mg/kg/injection, schedule: Q01DX009 (ip), vehicle: saline) 101 % of control; (dose: 100.0 mg/kg/injection, schedule: Q01DX009 (ip), vehicle: saline) 103 % of control; (dose: 200.0 mg/kg/injection, schedule: Q01DX009 (ip), vehicle: saline) 101 % of control; (dose: 400.0 mg/kg/injection, schedule: Q01DX009 (ip), vehicle: saline) 98 % of control.
Take `Cc1nn(C(N)=S)c(C)c1N=Nc1cc(Cl)ccc1Cl`: the T/C by setting is: under setting [7], 94 % of control; under setting [8], 86 % of control; under setting [9], 88 % of control.
Consider `O=C(NN1C(=O)CSC1c1ccc(F)cc1)c1ccncc1` (centres undefined), for which the T/C is 99 % of control under setting [4], 100 % of control under setting [5] and 92 % of control under setting [6].
Take `CC(C)CCNc1ncnc2c1cnn2C`: the T/C was 95 % of control under setting [13]; 100 % of control under setting [14]; 109 % of control (dose: 100.0 mg/kg/injection, schedule: Q04DX003 (ip), vehicle: saline with Tween-80).
`CN(C)CCCC#N`: the T/C by setting is: under setting [13], 100 % of control; under setting [14], 100 % of control; (dose: 100.0 mg/kg/injection, schedule: Q04DX003 (ip), vehicle: saline) 100 % of control.
Regarding `CCCCCCCCN1CSC(=S)N(c2ccc3[nH]c(=S)sc3c2)C1`, the T/C (dose: 6.25 mg/kg/injection, schedule: Q01DX009 (ip), vehicle: Klucel (hydroxypropylcellulose) (HPC)) was 94 % of control; the T/C (dose: 12.5 mg/kg/injection, schedule: Q01DX009 (ip), vehicle: Klucel (hydroxypropylcellulose) (HPC)) was 106 % of control; the T/C (dose: 25.0 mg/kg/injection, schedule: Q01DX009 (ip), vehicle: Klucel (hydroxypropylcellulose) (HPC)) is 94 % of control.
